# Calls of active or inactive are those of the source. No cut-off for these calls is given here.
# How the values were obtained:
# [1] = test system: SF-268; test: Growth inhibition of human SF268 cells assessed as cell growth at 10^-5 M incubated for 48 hrs by sulforhodamine B assay relative to control; type: functional; settings: SF-268, 48 h, read-out: Activity
# [2] = test system: MDA-MB-435; test: Downregulation of HDAC1 mRNA expression in human MDA-MB-435 cells by qRT-PCR method; type: functional, cell-based
# [3] = test system: HCC 2998; test: Growth inhibition of human HCC2998 cells assessed as cell growth at 10^-5 M incubated for 48 hrs by sulforhodamine B assay relative to control; type: functional; settings: HCC 2998, 48 h, read-out: Activity
# [4] = test system: SK-MEL-5; test: Growth inhibition of human SK-MEL-5 cells assessed as cell growth at 10^-6 M incubated for 48 hrs by sulforhodamine B assay relative to control; type: functional; settings: SK-MEL-5, 48 h, read-out: Activity
# [5] = test system: MCF7; test: Growth inhibition of human MCF7 cells assessed as cell growth at 10^-4 M incubated for 48 hrs by sulforhodamine B assay relative to control; type: functional; settings: MCF7, 48 h, read-out: Activity
# [6] = test system: SF-539; test: Growth inhibition of human SF539 cells assessed as cell growth at 10^-6 M incubated for 48 hrs by sulforhodamine B assay relative to control; type: functional; settings: SF-539, 48 h, read-out: Activity
# [7] = test system: IGROV-1; test: Growth inhibition of human IGROV1 cells assessed as cell growth at 10^-6 M incubated for 48 hrs by sulforhodamine B assay relative to control; type: functional; settings: IGROV-1, 48 h, read-out: Activity
# [8] = test system: Malme-3M; test: Growth inhibition of human MALME-3M cells assessed as cell growth at 10^-4 M incubated for 48 hrs by sulforhodamine B assay relative to control; type: functional; settings: read-out: Activity
# [9] = test system: SK-MEL-2; test: Growth inhibition of human SK-MEL-2 cells incubated for 48 hrs by sulforhodamine B assay; type: functional; settings: SK-MEL-2, 48 h
# [10] = test system: EKVX; test: Growth inhibition of human EKVX cells assessed as cell growth at 10^-7 M incubated for 48 hrs by sulforhodamine B assay relative to control; type: functional; settings: read-out: Activity
# [11] = test system: HL-60(TB); test: Growth inhibition of human HL-60(TB) cells assessed as cell growth at 10^-6 M incubated for 48 hrs by sulforhodamine B assay relative to control; type: functional; settings: HL-60, 48 h, read-out: Activity
# [12] = test system: HCT-116; test: Growth inhibition of human HCT116 cells assessed as cell growth at 10^-7 M incubated for 48 hrs by sulforhodamine B assay relative to control; type: functional; settings: HCT-116, 48 h, read-out: Activity
# [13] = test system: KM12; test: Growth inhibition of human KM12 cells incubated for 48 hrs by sulforhodamine B assay; type: functional; settings: KM12, 48 h
# [14] = test system: SK-MEL-28; test: Growth inhibition of human SK-MEL-28 cells assessed as cell growth at 10^-5 M incubated for 48 hrs by sulforhodamine B assay relative to control; type: functional; settings: SK-MEL-28, 48 h, read-out: Activity
# [15] = test system: NCI-H460; test: Growth inhibition of human NCI-H460 cells assessed as cell growth at 10^-6 M incubated for 48 hrs by sulforhodamine B assay relative to control; type: functional; settings: NCI-H460, 48 h, read-out: Activity
# [16] = test system: SK-MEL-5; test: Growth inhibition of human SK-MEL-5 cells assessed as cell growth at 10^-4 M incubated for 48 hrs by sulforhodamine B assay relative to control; type: functional; settings: SK-MEL-5, 48 h, read-out: Activity
# [17] = test system: Hs-578T; test: Growth inhibition of human Hs 578T cells assessed as cell growth at 10^-7 M incubated for 48 hrs by sulforhodamine B assay relative to control; type: functional; settings: read-out: Activity
# [18] = test system: U-251; test: Growth inhibition of human U251 cells assessed as cell growth at 10^-5 M incubated for 48 hrs by sulforhodamine B assay relative to control; type: functional; settings: U-251, 48 h, read-out: Activity
# [19] = test system: SF-295; test: Growth inhibition of human SF295 cells assessed as cell growth at 10^-7 M incubated for 48 hrs by sulforhodamine B assay relative to control; type: functional; settings: SF-295, 48 h, read-out: Activity
# [20] = test system: ACHN; test: Growth inhibition of human ACHN cells assessed as cell growth at 10^-4 M incubated for 48 hrs by sulforhodamine B assay relative to control; type: functional; settings: read-out: Activity
# [21] = test system: HL-60; test: Induction of apoptosis in human HL60 cells assessed as live cells by propidium iodide/Annexin V staining based flow cytometry (reference value: 96.94%); type: functional
# [22] = test system: T47D; test: Growth inhibition of human T47D cells incubated for 48 hrs by sulforhodamine B assay; type: functional
# [23] = test system: HL-60(TB); test: Growth inhibition of human HL-60(TB) cells assessed as cell growth at 10^-4 M incubated for 48 hrs by sulforhodamine B assay relative to control; type: functional; settings: HL-60, 48 h, read-out: Activity
# [24] = test system: A498; test: Growth inhibition of human A498 cells assessed as cell growth at 10^-7 M incubated for 48 hrs by sulforhodamine B assay relative to control; type: functional; settings: A498, 48 h, read-out: Activity
# [25] = test system: MDA-MB-435; test: Induction of apoptosis in human MDA-MB-435 cells assessed as increase in caspase-9 expression by qRT-PCR method; type: functional, cell-based
# [26] = test system: DU-145; test: Growth inhibition of human DU145 cells assessed as cell growth at 10^-6 M incubated for 48 hrs by sulforhodamine B assay relative to control; type: functional; settings: DU-145, 48 h, read-out: Activity
# [27] = test system: K562; test: Growth inhibition of human K562 cells assessed as cell growth at 10^-5 M incubated for 48 hrs by sulforhodamine B assay relative to control; type: functional; settings: K562, 48 h, read-out: Activity
# [28] = test system: SF-539; test: Growth inhibition of human SF539 cells assessed as cell growth at 10^-7 M incubated for 48 hrs by sulforhodamine B assay relative to control; type: functional; settings: SF-539, 48 h, read-out: Activity
# [29] = test system: Hs-578T; test: Growth inhibition of human Hs 578T cells assessed as cell growth at 10^-5 M incubated for 48 hrs by sulforhodamine B assay relative to control; type: functional; settings: read-out: Activity
# [30] = test system: NCI-H460; test: Growth inhibition of human NCI-H460 cells assessed as cell growth at 10^-4 M incubated for 48 hrs by sulforhodamine B assay relative to control; type: functional; settings: NCI-H460, 48 h, read-out: Activity
# [31] = test system: EKVX; test: Growth inhibition of human EKVX cells assessed as cell growth at 10^-4 M incubated for 48 hrs by sulforhodamine B assay relative to control; type: functional; settings: read-out: Activity
# [32] = test system: IGROV-1; test: Growth inhibition of human IGROV1 cells assessed as cell growth at 10^-7 M incubated for 48 hrs by sulforhodamine B assay relative to control; type: functional; settings: IGROV-1, 48 h, read-out: Activity
# [33] = test system: T47D; test: Growth inhibition of human T47D cells assessed as cell growth at 10^-8 M incubated for 48 hrs by sulforhodamine B assay relative to control; type: functional; settings: read-out: Activity
# [34] = read-out: LC50 (the source's name)
# [35] = read-out: pLC50 (the source's name) (converted)
smiles,measurement,setting,value
CCS/C(Nc1ccccc1)=C(\C#N)C(=O)Nc1ccc(OC)cc1,growth at 10 µM,[1],42%
same,Activity,[2],Active
same,growth at 10 µM,[3],41%
same,growth at 1 µM,[4],80%
same,growth at 100 µM,[5],6%
same,growth at 1 µM,[6],87%
same,growth at 1 µM,[7],79%
same,growth at 100 µM,[8],45%
same,GI50,[9]; read-out: GI50,3.01 µM
same,CC50,[9]; [34],> 100 µM
same,TGI,[9]; read-out: TGI,> 100 µM
same,GI50,[9]; read-out: pGI50 (converted),3.02 µM
same,CC50,[9]; [35],> 100 µM
same,TGI,[9]; read-out: pTGI,> 100 µM
same,growth at 0.1 µM,[10],81%
same,growth at 1 µM,[11],86%
same,growth at 0.1 µM,[12],89%
same,GI50,[13]; read-out: GI50,2.8 µM
same,CC50,[13]; [34],> 100 µM
same,TGI,[13]; read-out: TGI,> 100 µM
same,GI50,[13]; read-out: pGI50 (converted),2.82 µM
same,CC50,[13]; [35],> 100 µM
same,TGI,[13]; read-out: pTGI,> 100 µM
same,growth at 10 µM,[14],53%
same,growth at 1 µM,[15],90%
same,growth at 100 µM,[16],-58%
same,growth at 0.1 µM,[17],96%
same,growth at 10 µM,[18],26%
same,growth at 0.1 µM,[19],90%
same,growth at 100 µM,[20],17%
same,Activity,[21],84%
same,GI50,[22]; read-out: GI50,4.08 µM
same,CC50,[22]; [34],> 100 µM
same,TGI,[22]; read-out: TGI,> 100 µM
same,GI50,[22]; read-out: pGI50 (converted),4.07 µM
same,CC50,[22]; [35],> 100 µM
same,TGI,[22]; read-out: pTGI,> 100 µM
same,growth at 100 µM,[23],2%
same,growth at 0.1 µM,[24],90%
same,Activity,[25],Active
same,growth at 1 µM,[26],93%
same,growth at 10 µM,[27],12%
same,growth at 0.1 µM,[28],92%
same,growth at 10 µM,[29],28%
same,growth at 100 µM,[30],-9%
same,growth at 100 µM,[31],16%
same,growth at 0.1 µM,[32],101%
same,growth at 0.01 µM,[33],99%
CCS/C(Nc1ccccc1)=C(\C#N)C(=O)N/N=C\c1ccc(Cl)cc1Cl,growth at 10 µM,[1],42%
same,Activity,[2],Active
same,growth at 10 µM,[3],33%
same,growth at 1 µM,[4],81%
same,growth at 100 µM,[5],9%
same,growth at 1 µM,[6],90%
same,growth at 1 µM,[7],84%
same,growth at 100 µM,[8],26%
same,GI50,[9]; read-out: GI50,3.24 µM
same,CC50,[9]; [34],> 100 µM
same,TGI,[9]; read-out: TGI,43.6 µM
same,GI50,[9]; read-out: pGI50 (converted),3.24 µM
same,CC50,[9]; [35],> 100 µM
same,TGI,[9]; read-out: pTGI,43.7 µM
same,growth at 0.1 µM,[10],88%
same,growth at 1 µM,[11],93%
same,growth at 0.1 µM,[12],92%
same,GI50,[13]; read-out: GI50,4.04 µM
same,CC50,[13]; [34],> 100 µM
same,TGI,[13]; read-out: TGI,> 100 µM
same,GI50,[13]; read-out: pGI50 (converted),4.07 µM
same,CC50,[13]; [35],> 100 µM
same,TGI,[13]; read-out: pTGI,> 100 µM
same,growth at 10 µM,[14],53%
same,growth at 1 µM,[15],91%
same,growth at 100 µM,[16],-14%
same,growth at 0.1 µM,[17],92%
same,growth at 10 µM,[18],20%
same,growth at 0.1 µM,[19],88%
same,growth at 100 µM,[20],29%
same,Activity,[21],79.88%
same,GI50,[22]; read-out: GI50,4.03 µM
same,CC50,[22]; [34],> 100 µM
same,TGI,[22]; read-out: TGI,> 100 µM
same,GI50,[22]; read-out: pGI50 (converted),4.07 µM
same,CC50,[22]; [35],> 100 µM
same,TGI,[22]; read-out: pTGI,> 100 µM
same,growth at 100 µM,[23],5%
same,growth at 0.1 µM,[24],78%
same,Activity,[25],Active
same,growth at 1 µM,[26],97%
same,growth at 10 µM,[27],10%
same,growth at 0.1 µM,[28],94%
same,growth at 10 µM,[29],18%
same,growth at 100 µM,[30],6%
same,growth at 100 µM,[31],29%
same,growth at 0.1 µM,[32],98%
same,growth at 0.01 µM,[33],102%
